According to patent US9845326B2, “Substituted 3,4-dihydropyrrolo[1,2-A]pyrazines as beta-secretase (BACE) inhibitors” (priority 2011, dated 2017):

What was measured:
Aβtotal = assay: Cellular αlisa assay in SKNBE2 cells, Aβtotal; type: cell-based, human; settings: SKNBE2 cells expressing hAPP695, 18 hours incubation; for IC50: Homo sapiens, SKNBE2, 18 h, read-out: Cellular αlisa assay in SKNBE2 cells Aβtotal pIC50 (converted)
Procedure: (§1) In two αlisa assays the levels of Aβtotal and Aβ42 produced and secreted into the medium of human neuroblastoma SKNBE2 cells are quantified. The assay is based on the human neuroblastoma SKNBE2 expressing the wild type Amyloid Precursor Protein (hAPP695). The compounds are diluted and added to these cells, incubated for 18 hours and then measurements of Aβ42 and Aβtotal are taken. Aβtotal and Aβ42 are measured by sandwich αlisa. αlisa is a sandwich assay using biotinylated antibody AbN/25 attached to streptavidin coated beads and antibody Ab4G8 or cAb42/26 conjugated acceptor beads for the detection of Aβtotal and Aβ42 respectively. In the presence of Aβtotal or Aβ42, the beads come into close proximity. The excitation of the Donor beads provokes the release of singlet oxygen molecules that triggers a cascade of energy transfer in the Acceptor beads, resulting in light emission. Light emission is measured after 1 hour incubation (excitation at […] and emission at 615 nm).
(§2) From this an […] value (inhibitory concentration causing 50% inhibition of activity) can be obtained.

BACE1 = BACE1 (Homo sapiens, UniProt P56817); assay: Biochemical FRET based assay; settings: Biochemical FRET based assay pIC50, recombinant BACE1 1 μg/ml, 120 min, room temperature, pH 5.0
Text: This assay is a Fluorescence Resonance Energy Transfer Assay (FRET) based assay. The substrate for this assay is an APP derived 13 amino acids peptide that contains the ‘Swedish’ Lys-Met/Asn-Leu mutation of the amyloid precursor protein (APP) β-secretase cleavage site. This substrate also contains two fluorophores: (7-methoxy-coumarin-4-yl) acetic acid (Mca) is a fluorescent donor with excitation wavelength at 320 nm and emission at 405 nm and 2,4-Dinitrophenyl (Dnp) is a proprietary quencher acceptor. […] Upon cleavage by BACE1, the fluorophore Mca is separated from the quenching group Dnp, restoring the full fluorescence yield of the donor. The increase in fluorescence is linearly related to the rate of proteolysis (Koike H et al. J. Biochem. 1999, 126, 235-242).
Briefly in a 384-well format recombinant BACE1 protein in a final concentration of 1 μg/ml is incubated for 120 min at room temperature with 10 μm substrate in incubation buffer (40 mM Citrate buffer pH 5.0, 0.04% PEG, 4% DMSO) in the absence or presence of compound. Next the amount of proteolysis is directly measured by fluorescence measurement at T=0 and T=120 (excitation at 320 nm and emission at 405 nm). Results are expressed in RFU, as difference between T120 and T0
From this an IC50 value (inhibitory concentration causing 50% inhibition of activity) can be obtained.

Aβ42 = assay: Cellular αlisa assay in SKNBE2 cells, Aβ42; type: cell-based, human; settings: SKNBE2 cells expressing hAPP695, 18 hours incubation; for IC50: Homo sapiens, SKNBE2, 18 h, read-out: Cellular αlisa assay in SKNBE2 cells Aβ42 pIC50 (converted)
Procedure: as §1, §2

BACE1, sequence (P56817 46-501): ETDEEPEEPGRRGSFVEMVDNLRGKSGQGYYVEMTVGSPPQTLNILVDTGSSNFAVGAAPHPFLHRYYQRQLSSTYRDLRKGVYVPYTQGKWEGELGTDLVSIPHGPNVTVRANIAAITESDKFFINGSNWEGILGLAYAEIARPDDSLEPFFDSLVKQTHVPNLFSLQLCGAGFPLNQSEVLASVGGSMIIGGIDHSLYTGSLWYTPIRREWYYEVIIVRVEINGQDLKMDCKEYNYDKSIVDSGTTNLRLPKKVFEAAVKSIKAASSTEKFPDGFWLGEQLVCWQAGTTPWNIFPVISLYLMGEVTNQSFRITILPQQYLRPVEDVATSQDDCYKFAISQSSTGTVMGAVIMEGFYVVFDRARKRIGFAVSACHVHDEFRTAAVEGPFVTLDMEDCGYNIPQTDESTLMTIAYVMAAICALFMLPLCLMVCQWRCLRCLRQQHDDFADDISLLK

Row | Compound | IC50 (Aβtotal) | IC50 (BACE1) | IC50 (Aβ42) | Cellular αlisa assay in SKNBE2 cells Aβtotal pIC50 (Aβtotal) | Cellular αlisa assay in SKNBE2 cells Aβ42 pIC50 (Aβ42)
1 | CC1(c2cccc(-c3cncnc3)c2)Cn2cccc2C(N)=N1 (racemic) [Compound 1, rac-3-methyl-3-(3-pyrimidin-5-yl-phenyl)-3,4-dihydro-pyrrolo[1,2-a]pyrazin-1-ylamine] | 3890 nM | 12000 nM | 3980 nM |  | 
2 | CC1(c2cccc(-c3cc(Cl)cc(Cl)c3)c2)Cn2cccc2C(N)=N1 (racemic) [Compound 2, rac-3-(3′,5′-dichloro-biphenyl-3-yl)-3-methyl-3,4-dihydro-pyrrolo[1,2-a]pyrazin-1-ylamine] | 4270 nM | 3720 nM | 4470 nM |  | 
3 | CC1(c2cccc(NC(=O)c3ccc(Cl)cn3)c2)Cn2cccc2C(N)=N1 (racemic) [Compound 3, rac-5-chloro-pyridine-2-carboxylic acid[3-(1-amino-3-methyl-3,4-dihydro-pyrrolo[1,2-a]pyrazin-3-ye-phenyl]-amide] | 95.5 nM | 135 nM | 100 nM |  | 
4 | COc1cnc(C(=O)Nc2cccc(C3(C)Cn4cccc4C(N)=N3)c2)cn1 (racemic) [Compound 4, rac-5-methoxy-pyrazine-2-carboxylic acid [3-(1-amino-3-methyl-3,4-dihydro-pyrrolo[1,2-a]pyrazin-3-ye-phenyl]-amide] | 93.3 nM | 234 nM | 110 nM |  | 
5 | COc1cnc(C(=O)Nc2ccc(F)c(C3(C(F)F)Cn4cccc4C(N)=N3)c2)cn1 (racemic) [Compound 11] | 9.55 nM | 107 nM | 11 nM |  | 
6 | COc1cnc(C(=O)Nc2ccc(F)c(C3(C(F)F)Cn4cccc4C(N)=N3)c2)cn1 (single isomer, unassigned) [Compound 12] |  | 37.2 nM |  | 7.9 | 7.85
7 | COc1cnc(C(=O)Nc2ccc(F)c(C3(C(F)F)Cn4cccc4C(N)=N3)c2)cn1 (single isomer, unassigned) [Compound 13] |  | 18200 nM |  | 5.62 | 5.63
8 | COCC1(c2cc(NC(=O)c3ccn(C(F)F)n3)ccc2F)Cn2cc(C(F)(F)F)cc2C(N)=N1 (single isomer, unassigned) [Compound 31] |  | > 50100 nM |  | <5 | <5
9 | COCC1(c2cc(NC(=O)c3ccn(C(F)F)n3)ccc2F)Cn2cc(C(F)(F)F)cc2C(N)=N1 (single isomer, unassigned) [Compound 32] |  | 1740 nM |  | 6.53 | 6.54
10 | C[C@@]1(c2cc(NC(=O)c3ccc(Cl)cn3)ccc2F)Cn2cccc2C(N)=N1 [Compound 5, (R)-5-chloro-pyridine-2-carboxylic acid [3-(1-amino-3-methyl-3,4-dihydro-pyrrolo[1,2-a]pyrazin-3-yl)-4-fluoro-phenyl]-amide] | 2.82 nM | 37.2 nM | 2.95 nM |  | 
11 | COc1cnc(C(=O)Nc2ccc(F)c([C@]3(C)Cn4cc(F)cc4C(N)=N3)c2)cn1 [Compound 8, (R)-5-methoxy-pyrazine-2-carboxylic acid [3-(1-amino-7-fluoro-3-methyl-3,4-dihydro-pyrrolo[1,2-a]pyrazin-3-yl)-4-fluoro-phenyl]-amide] | 2.04 nM | 33.1 nM | 2.19 nM |  | 
12 | C[C@@]1(c2cc(NC(=O)c3ccc(C#N)cn3)ccc2F)Cn2cc(C(F)(F)F)cc2C(N)=N1 [Compound 9] | 10.7 nM | 33.9 nM | 12 nM |  | 
13 | C[C@@]1(c2cc(NC(=O)c3ccn(C(F)F)n3)ccc2F)Cn2cc(C(F)(F)F)cc2C(N)=N1 [Compound 10] | 12.6 nM | 47.9 nM | 13.5 nM |  | 
14 | NC1=NC(c2cc(NC(=O)c3ccc(F)cn3)ccc2F)(C(F)F)Cn2cccc21 (stereo not drawn) [Compound 14] | 35.5 nM | 174 nM | 37.2 nM |  | 
15 | C[C@@]1(c2cc(NC(=O)c3ncc(C#N)cc3F)ccc2F)Cn2cc(C(F)(F)F)cc2C(N)=N1 [Compound 15] | 8.91 nM | 36.3 nM | 9.33 nM |  | 
16 | Cc1nc(C(=O)Nc2ccc(F)c([C@]3(C)Cn4cc(F)cc4C(N)=N3)c2)co1 [Compound 16] | 19.5 nM | 49 nM | 20.4 nM |  | 
17 | Cc1nc(C(=O)Nc2ccc(F)c([C@]3(C)Cn4cc(F)cc4C(N)=N3)c2)c(C)o1 [Compound 17] | 33.9 nM | 67.6 nM | 32.4 nM |  | 
18 | Cc1nc(C(=O)Nc2ccc(F)c([C@]3(C)Cn4cc(F)cc4C(N)=N3)c2)c(C(F)(F)F)o1 [Compound 18] | 30.9 nM | 83.2 nM | 31.6 nM |  | 
19 | Cc1nc(C(=O)Nc2ccc(F)c([C@]3(C)Cn4cc(C(F)(F)F)cc4C(N)=N3)c2)c(C)o1 [Compound 19] | 63.1 nM | 178 nM | 66.1 nM |  | 
20 | Cc1nc(C(=O)Nc2ccc(F)c([C@]3(C)Cn4cc(C(F)(F)F)cc4C(N)=N3)c2)co1 [Compound 20] | 23.4 nM | 102 nM | 24 nM |  | 
21 | Cc1nc(C(=O)Nc2ccc(F)c([C@]3(C)Cn4cc(C(F)(F)F)cc4C(N)=N3)c2)co1 [Compound 21] |  | 95.5 nM |  | 7.79 | 7.83
22 | C[C@@]1(c2cc(NC(=O)c3ccsn3)ccc2F)Cn2cc(C(F)(F)F)cc2C(N)=N1 [Compound 22] | 47.9 nM | 224 nM | 49 nM |  | 
23 | Cc1nc(C(=O)Nc2ccc(F)c([C@]3(C)Cn4cc(C(F)(F)F)cc4C(N)=N3)c2)c(C(F)(F)F)o1 [Compound 23] | 77.6 nM | 182 nM | 75.9 nM |  | 
24 | COCC1(c2cc(NC(=O)c3cnc(OC)cn3)ccc2F)Cn2cc(C(F)(F)F)cc2C(N)=N1 (stereo not drawn) [Compound 24] |  | 3160 nM |  | 6.35 | 6.30
25 | COCC1(c2cc(NC(=O)c3ccc(F)cn3)ccc2F)Cn2cc(C(F)(F)F)cc2C(N)=N1 (stereo not drawn) [Compound 25] |  | 5010 nM |  | 6.07 | 6.04
26 | COCC1(c2cc(NC(=O)c3ccn(C(F)F)n3)ccc2F)Cn2cc(C(F)(F)F)cc2C(N)=N1 (stereo not drawn) [Compound 26] | 537 nM | 2880 nM | 501 nM |  | 
27 | COCC1(c2cc(NC(=O)c3cnc(OC)cn3)ccc2F)Cn2cc(C(F)(F)F)cc2C(N)=N1 (stereo not drawn) [Compound 27] |  | > 50100 nM |  | <5 | <5
28 | COCC1(c2cc(NC(=O)c3cnc(OC)cn3)ccc2F)Cn2cc(C(F)(F)F)cc2C(N)=N1 (stereo not drawn) [Compound 28] |  | 1910 nM |  | 6.52 | 6.53
29 | COCC1(c2cc(NC(=O)c3ccc(F)cn3)ccc2F)Cn2cc(C(F)(F)F)cc2C(N)=N1 (stereo not drawn) [Compound 29] |  | 2040 nM |  | 6.33 | 6.32
30 | COCC1(c2cc(NC(=O)c3ccc(F)cn3)ccc2F)Cn2cc(C(F)(F)F)cc2C(N)=N1 (stereo not drawn) [Compound 30] |  | 34700 nM |  | <5 | <5
